# Results reported in patent publication US20100081699A1, “YEAST PLATFORM CONSTRUCTION AND SCREENING METHODS” (Bioalvo-Servicos ,Investigacao e Desenvolvimento em …, priority 2006, published 2010).
# Molecular target: T1, human IDO (Homo sapiens, UniProt P14902)
# T1 construct: The IDO gene was obtained from the IMAGE consortium as a 1586 bps fragment cloned in the vector pCMV-SPORT6; expressed in transfected cells
# Assay: Growth inhibition of BLOCKADE cells with small molecule compounds (life/death screen)
# Format: cell-based
# Settings: S. cerevisiae BLOCKADE cells, minimum medium with 2% galactose, 10, 5, 2.5 and 1 μM compound, 3 days at 30° C.; WT cells at 10 μM as cytotoxicity control
# Description: Cells were pre-grown on a mixture of 1.2% glucose and 0.8% galactose until reaching early exponential phase (OD=1-2). The cells were washed three times with water and then resuspended in fresh selective medium containing 2% galactose, in order to fully activate IDO expression. Cells were dispensed into 96-well plates and inhibitor compounds were added to the cell culture at concentrations of 10, 5, 2.5 and 1 μM. Growth was monitored during 3 days at 30° C. under agitation. Compounds were selected from diverse libraries.
# IDO inhibitory compounds were identified as those that repressed the growth of the cells. Possible cytotoxic effects of the compounds were identified by growing the wild type strain in the same condition at a concentration of 10 μM. Compounds inhibiting both BLOCKADE cells and wild type strains were considered as cytotoxic and therefore not selected for further development. Compounds inhibiting only BLOCKADE cells, but not the wild type strains were considered as hits, potential IDO inhibitory compounds.
# T1 sequence (P14902 whole entry, the tested form may be a part): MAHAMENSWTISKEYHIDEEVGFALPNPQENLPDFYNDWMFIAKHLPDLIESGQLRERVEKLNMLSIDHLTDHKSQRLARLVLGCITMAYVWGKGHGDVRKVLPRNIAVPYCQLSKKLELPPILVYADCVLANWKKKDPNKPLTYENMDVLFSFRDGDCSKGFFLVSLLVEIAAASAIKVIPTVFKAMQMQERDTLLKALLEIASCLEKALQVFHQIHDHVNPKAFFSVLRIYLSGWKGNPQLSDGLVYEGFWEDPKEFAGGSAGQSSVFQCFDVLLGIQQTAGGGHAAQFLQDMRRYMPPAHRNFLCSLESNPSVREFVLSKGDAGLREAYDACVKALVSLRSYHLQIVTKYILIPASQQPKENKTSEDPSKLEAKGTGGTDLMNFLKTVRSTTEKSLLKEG
compound,measurement,value
O=C(O)CCn1c2ccc(Br)cc2c2cc(Br)ccc21 [BLK200769],Inhibition of growth of BLOCKADE cells,inhibition
